Biological target: T1, GTP/GDP carrier (GGC) from yeast mitochondria (Saccharomyces cerevisiae, UniProt P38988)
T1 sequence (P38988 1-300): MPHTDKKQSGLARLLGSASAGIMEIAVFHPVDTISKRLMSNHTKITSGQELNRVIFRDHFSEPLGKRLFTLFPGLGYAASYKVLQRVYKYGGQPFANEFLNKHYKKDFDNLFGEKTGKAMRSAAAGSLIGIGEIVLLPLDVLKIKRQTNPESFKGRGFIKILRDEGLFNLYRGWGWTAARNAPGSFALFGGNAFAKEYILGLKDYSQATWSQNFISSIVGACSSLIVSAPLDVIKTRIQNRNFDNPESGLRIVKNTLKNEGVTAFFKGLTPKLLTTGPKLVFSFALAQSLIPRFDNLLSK
Experiment: NMR chemical shift perturbation titration, 3D TROSY HNCO
Format: binding

Row | Kd | SMILES
1 | 23 mM | Nc1nc2c(ncn2[C@@H]2O[C@H](COP(=O)(O)OP(=O)(O)O)[C@@H](O)[C@H]2O)c(=O)[nH]1 [GDP]
2 | 6.6 mM | Nc1nc2c(ncn2[C@@H]2O[C@H](COP(=O)(O)OP(=O)(O)OP(=O)(O)O)[C@@H](O)[C@H]2O)c(=O)[nH]1 [GTP]

— publication PMC4423559 (Angewandte Chemie (International ed. in English), 2015)
